The results in this text go back to ChEMBL document CHEMBL4414585, “Inhibition Mechanisms of Indoleamine 2,3-Dioxygenase 1 (IDO1)” (J Med Chem, 2019).

By pKa is commonly meant the negative logarithm of the acid dissociation constant. As usually defined, the inhibition is the relative decrease from the control value, in per cent. By IC50 is commonly meant the concentration that inhibits the measured activity by half.

Data set [1] is described as follows: Dissociation constant, pKa of the compound. The format is physicochemical.
In data set [2] the target is T1, Indoleamine 2,3-dioxygenase 1 (Homo sapiens, UniProt P14902). Put plainly: Inhibition of full-length human IDO1 expressed in Escherichia coli Rosetta (DE3) assessed as reduction in kynurenine production at 0.5 to 1 uM pre-incubated for 120 mins before jump dilution with incubation medium containing L-Trp and further incubated for 20 mins by HPLC analysis.
Target sequence in this assay (P14902 whole entry, looked up): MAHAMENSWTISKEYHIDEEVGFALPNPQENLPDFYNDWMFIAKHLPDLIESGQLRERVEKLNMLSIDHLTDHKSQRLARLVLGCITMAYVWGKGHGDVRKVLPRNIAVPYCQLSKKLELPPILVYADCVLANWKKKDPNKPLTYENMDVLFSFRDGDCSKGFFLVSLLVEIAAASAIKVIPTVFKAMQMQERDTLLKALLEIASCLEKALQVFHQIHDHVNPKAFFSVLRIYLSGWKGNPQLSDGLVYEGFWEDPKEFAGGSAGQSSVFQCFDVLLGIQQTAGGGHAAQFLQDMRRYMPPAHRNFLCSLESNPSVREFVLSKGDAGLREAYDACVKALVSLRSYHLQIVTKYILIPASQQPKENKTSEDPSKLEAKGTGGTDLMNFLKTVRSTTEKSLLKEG
The target of data set [3] is T1, Indoleamine 2,3-dioxygenase 1. Put plainly: Inhibition of full-length human IDO1 expressed in Escherichia coli Rosetta (DE3) assessed as reduction in kynurenine production at 0.5 to 1 uM pre-incubated for 120 mins in presence of ascorbate and MB reductants before jump dilution with incubation medium containing L-Trp and further incubated for 20 mins by HPLC analysis.
Target sequence in this assay (P14902 whole entry, looked up): as above

For data set [4] the target is unchanged. Briefly: Binding affinity to human IDO1 expressed in Escherichia coli Rosetta (DE3) assessed induction of shift in Soret peak in phosphate buffer at 200 uM in presence of ascorbate and MB reductants measured over 4 hrs by UV-vis absorption spectroscopy.
Target sequence in this assay (P14902 whole entry, looked up): as above
Data set [5] has the same target. Put plainly: Binding affinity to human IDO1 expressed in Escherichia coli Rosetta (DE3) assessed induction of shift in Soret peak in phosphate buffer at 200 uM measured over 4 hrs by UV-vis absorption spectroscopy.
Target sequence in this assay (P14902 whole entry, looked up): as above
Data set [6] shares this target. Briefly: Inhibition of IDO1 in IFNgamma-induced human HeLa cells incubated for 5 hrs by Ehrlich's reagent based assay. The class given is cell-based.
Target sequence in this assay (P14902 whole entry): as the sequence (P14902 whole entry, looked up) above
Data set [7] has the same target. Briefly: Inhibition of full-length human IDO1 expressed in Escherichia coli Rosetta (DE3) assessed as reduction in kynurenine production at 0.5 to 1 uM pre-incubated for 120 mins in presence of ascorbate and MB reductants and catalase before jump dilution with incubation medium containing L-Trp and further incubated for 20 mins by HPLC analysis.
Target sequence in this assay (P14902 whole entry, looked up): as above
Data set [8] shares this target. Briefly: Inhibition of purified human recombinant IDO1 expressed in Escherichia coli assessed as reduction in kynurenine production incubated up to 90 mins using L-Trp substrate by Ehrlich's reagent based spectrophotometry.
Target sequence in this assay (P14902 whole entry): as the sequence (P14902 whole entry, looked up) above
For data set [9] the target is unchanged. The settings on record: 20 uM.
Target sequence in this assay (P14902 whole entry, looked up): as above
Description: Inhibition of full-length human IDO1 expressed in Escherichia coli Rosetta (DE3) assessed as reduction in kynurenine production at 20 uM pre-incubated for 120 mins before L-Trp addition by HPLC analysis relative to control
The target is the same in data set [10]. The settings on record: 40 uM.
Description: Inhibition of full-length human IDO1 expressed in Escherichia coli Rosetta (DE3) assessed as reduction in kynurenine production at 40 uM pre-incubated for 120 mins before L-Trp addition by HPLC analysis relative to control
For data set [11] the target is unchanged. The settings on record: 20 to 40 uM.
Description: Inhibition of full-length human IDO1 expressed in Escherichia coli Rosetta (DE3) assessed as reduction in kynurenine production at 20 to 40 uM pre-incubated for 120 mins before L-Trp addition in presence of ascorbate and MB reductants and catalase by HPLC analysis relative to control
For data set [12] the target is unchanged. The settings on record: 20 to 40 uM. This is another data set of the same source.
Description: Inhibition of full-length human IDO1 expressed in Escherichia coli Rosetta (DE3) assessed as reduction in kynurenine production at 20 to 40 uM pre-incubated for 120 mins before jump dilution with incubation medium containing L-Trp and further incubated for 20 mins by HPLC analysis
Data set [13] has the same target. The settings on record: 20 to 40 uM. The source holds these as a separate data set.
Description: Inhibition of full-length human IDO1 expressed in Escherichia coli Rosetta (DE3) assessed as reduction in kynurenine production at 20 to 40 uM pre-incubated for 120 mins before L-Trp addition in presence of ascorbate and MB reductants by HPLC analysis relative to control
For data set [14] the target is unchanged. Put plainly: Inhibition of IDO1 (unknown origin) by cell based assay.
Target sequence in this assay (P14902 whole entry): as the sequence (P14902 whole entry, looked up) above
Data set [15] shares this target. Briefly: Inhibition of full-length human IDO1 expressed in Escherichia coli Rosetta (DE3) assessed as enzyme activity by measuring kynurenine production at 40 to 200 uM pre-incubated for 120 mins in presence of ascorbate and MB reductants and catalase before jump dilution with incubation medium containing L-Trp and further incubated for 20 mins by HPLC analysis.

Data set [16] shares this target. Put plainly: Inhibition of full-length human IDO1 expressed in Escherichia coli Rosetta (DE3) assessed as reduction in kynurenine production at 40 to 200 uM pre-incubated for 120 mins before jump dilution with incubation medium containing L-Trp and further incubated for 20 mins by HPLC analysis.
For data set [17] the target is unchanged. Briefly: Inhibition of IDO1 (unknown origin) by enzymatic assay.
Target sequence in this assay (P14902 whole entry): as the sequence (P14902 whole entry, looked up) above
Data set [18] has the same target. Put plainly: Inhibition of full-length human IDO1 expressed in Escherichia coli Rosetta (DE3) using L-Trp substrate by HPLC analysis.
Target sequence in this assay (P14902 whole entry): as the sequence (P14902 whole entry, looked up) above
The target is the same in data set [19]. Briefly: Binding affinity to human IDO1 expressed in Escherichia coli Rosetta (DE3) assessed complete protection against heme degradation at 200 uM in presence of ascorbate and MB reductants measured at 45 mins by UV-vis absorption spectroscopy.
The target is the same in data set [20]. Put plainly: Inhibition of full-length human IDO1 expressed in Escherichia coli Rosetta (DE3) assessed as enzyme activity by measuring kynurenine production at 40 to 200 uM pre-incubated for 120 mins in presence of ascorbate and MB reductants before jump dilution with incubation medium containing L-Trp and further incubated for 20 mins by HPLC analysis. Details: scale not given: the % may be the effect or the level left.

For data set [21] the target is unchanged. Put plainly: Selectivity ratio of IC50 for inhibition of IDO1 (unknown origin) by enzymatic assay to IC50 for inhibition of IDO1 (unknown origin) by cell based assay.
Data set [22] has the same target. Put plainly: Binding affinity to human IDO1 expressed in Escherichia coli Rosetta (DE3) assessed induction of shift in Soret peak in phosphate buffer at 200 uM in presence of ascorbate and MB reductants measured over 60 mins by UV-vis absorption spectroscopy (reference value: […] nm).
The target is the same in data set [23]. Briefly: Inhibition of full-length human IDO1 expressed in Escherichia coli Rosetta (DE3) assessed as reduction in kynurenine production at 0.5 to 2.5 uM pre-incubated for 120 mins in presence of ascorbate and MB reductants and catalase before jump dilution with incubation medium containing L-Trp and further incubated for 20 mins by HPLC analysis.
Data set [24] shares this target. Put plainly: Inhibition of full-length human IDO1 expressed in Escherichia coli Rosetta (DE3) assessed as reduction in kynurenine production at 0.5 to 2.5 uM pre-incubated for 120 mins in presence of ascorbate and MB reductants before jump dilution with incubation medium containing L-Trp and further incubated for 20 mins by HPLC analysis.
For data set [25] the target is unchanged. Put plainly: Inhibition of full-length human IDO1 expressed in Escherichia coli Rosetta (DE3) assessed as reduction in kynurenine production at 0.5 to 2.5 uM pre-incubated for 120 mins before jump dilution with incubation medium containing L-Trp and further incubated for 20 mins by HPLC analysis.

Activity calls are given as the source filed them. The rule behind the calls is not given here.

Regarding `Oc1ccc(Cl)cc1-c1c[nH]nn1`, the pKa in data set [1] was 8.3.

For the compound `CC1(C)CCC2=C(O1)c1ccccc1C(=O)C2=O` [LAPACHONE], the inhibition result in data set [2] and in [3] was “Active” each time. In addition, the result in data set [4] and in data set [5] was inactive. Besides, the IC50 in data set [6] worked out at 1000 nM; in [8], 440 nM. Besides, the inhibition result in [7] is “inactive”.

Consider `Nc1nonc1/C(=N/O)Nc1ccc(F)c(Cl)c1`, for which the inhibition was found to be 82% in data set [9], 65% in data set [10], 100% in [11] and 100% in data set [13]. Also, the inhibition result in data set [12] was “Active”.

Consider `Clc1ccc(Nc2cn[nH]n2)cc1`, for which the IC50 is 23 nM in data set [14], 11300 nM in [17] and 70000 nM in data set [18]. Also, the inhibition entry in [15] was “inactive”. Moreover, the inhibition result in data set [16] is “Active”. Moreover, in data set [19], the result was inactive. The Activity in [20] worked out at 0%; in data set [22], 425 nm. Besides, the Ratio IC50 in [21] is 500.

For the compound `CC1=CC(=O)c2ccccc2C1=O`, the inhibition result in [23] was “inactive”. For the same compound, the outcome in [4] and in data set [5] was inactive. Besides, the inhibition result in data set [24] and in data set [25] was “Active” each time.
